pIC50: −log10 of the molar value. The source made the active and inactive calls. The calls are words filed in the database; no cut-off is given here. Positions of bridges follow the written chain, without caps; N, C: chain ends. Non-standard residues stand in square brackets, D forms with d. Residues, ends and D or L forms follow the SMILES beside them. *: point of attachment. Nle = CCCC[C@H](N)C(=O)O; Cbz = O=C(OCc1ccccc1)*
Tests used:
PC-3 [1] = test: Antiproliferative activity against human PC3 cells at 200 nM after 120 hrs by MTT assay relative to DMSO; format: functional
PC-3 [2] = test: Antiproliferative activity against human PC3 cells at 50 uM after 120 hrs by MTT assay relative to DMSO; format: functional
[3] = molecular target: Transcription factor Jun (Homo sapiens) (UniProt P05412); test: Activation of c-Jun expressed in HEK293 cells assessed as induction of protein interaction with Pin1 by EYFP based reporter gene assay; format: cell-based
[4] = molecular target: Transcription factor Jun (Homo sapiens) (UniProt P05412); test: Inhibition of c-Jun expressed in HEK293 cells assessed as induction of protein interaction in presence of camptothecin with Pin1 by EYFP based reporter gene assay; format: cell-based
[5] = molecular target: Cyclin-dependent kinase 1 (Homo sapiens) (UniProt P06493); test: Effect on Cdc2 expressed in HEK293 cells assessed as effect on Cdc2:Cdc25C interaction complexes in presence of camptothecin by EYFP and/or YFP Venus fragment based reporter gene assay; format: cell-based
[6] = molecular target: Cyclin-dependent kinase 1 (Homo sapiens) (UniProt P06493); test: Effect on Cdc2 expressed in HEK293 cells assessed as effect on Cdc2:Cdc25A interaction complexes in presence of camptothecin by EYFP and/or YFP Venus fragment based reporter gene assay; format: cell-based
Cofilin-1 (Homo sapiens) [7] = molecular target: Cofilin-1 (Homo sapiens) (UniProt P23528); test: Effect on cofilin1 expressed in HEK293 cells assessed as effect on cofilin1; Limk2 interaction complexes in presence of camptothecin by EYFP and/or YFP Venus fragment based reporter gene assay; format: cell-based
[8] = molecular target: Cyclin-dependent kinase 1 (Homo sapiens) (UniProt P06493); test: Inhibition of Cdc2 expressed in HEK293 cells assessed as effect on Cdc2:Cdc25C interaction complexes in presence of camptothecin by EYFP and/or YFP Venus fragment based reporter gene assay; format: cell-based
Cofilin-1 (Homo sapiens) [9] = molecular target: Cofilin-1 (Homo sapiens) (UniProt P23528); test: Effect on cofilin1 expressed in HEK293 cells assessed as effect on cofilin1; Limk2 interaction complexes by EYFP and/or YFP Venus fragment based reporter gene assay; format: cell-based
HEK293 [10] = test: Inhibition of proteasome expressed in HEK293 cells assessed as effect on Pin1-Jun interaction complexes by EYFP and/or YFP Venus fragment based reporter gene assay
PC-3 [11] = test: Antiproliferative activity against human PC3 cells at 25 uM after 120 hrs by MTT assay relative to DMSO; format: functional
HEK293 [12] = test: Inhibition of proteasome expressed in HEK293 cells assessed as effect on E6:E6AP interaction complexes by EYFP and/or YFP Venus fragment based reporter gene assay
HEK293 [13] = test: Inhibition of proteasome expressed in HEK293 cells assessed as effect on p53-p53 interaction complexes by EYFP and/or YFP Venus fragment based reporter gene assay
HEK293 [14] = test: Inhibition of proteasome expressed in HEK293 cells assessed as effect on CyclinD1-CDK4 interaction complexes by EYFP and/or YFP Venus fragment based reporter gene assay
HEK293 [15] = test: Inhibition of proteasome expressed in HEK293 cells assessed as effect on p53-Chk1 interaction complexes by EYFP and/or YFP Venus fragment based reporter gene assay
PC-3 [16] = test: Antiproliferative activity against human PC3 cells at 100 nM after 120 hrs by MTT assay relative to DMSO; format: functional
PC-3 [17] = test: Antiproliferative activity against human PC3 cells at 5 uM after 120 hrs by MTT assay relative to DMSO; format: functional
HEK293 [18] = test: Inhibition of HSP90 expressed in HEK293 cells assessed as effect on Akt1:p27 interaction complexes by EYFP and/or YFP Venus fragment based reporter gene assay; format: cell-based
PC-3 [19] = test: Antiproliferative activity against human PC3 cells at 300 nM after 120 hrs by MTT assay relative to DMSO; format: functional
PC-3 [20] = test: Antiproliferative activity against human PC3 cells at 50 ug/ml after 120 hrs by MTT assay relative to DMSO; format: functional
PC-3 [21] = test: Antiproliferative activity against human PC3 cells at 15 uM after 120 hrs by MTT assay relative to DMSO; format: functional
PC-3 [22] = test: Antiproliferative activity against human PC3 cells at 30 uM after 120 hrs by MTT assay relative to DMSO; format: functional
PC-3 [23] = test: Antiproliferative activity against human PC3 cells at 1.5 uM after 120 hrs by MTT assay relative to DMSO; format: functional
PC-3 [24] = test: Antiproliferative activity against human PC3 cells at 2.5 uM after 120 hrs by MTT assay relative to DMSO; format: functional
PC-3 [25] = test: Antiproliferative activity against human PC3 cells at 1 uM after 120 hrs by MTT assay relative to DMSO; format: functional
[26] = Antiproliferative activity against human U87MG cells after 120 hrs by MTT assay; format: functional, cell-based, U-87MG ATCC; conditions: U-87 MG
A549 = test: Antiproliferative activity against human A549 cells after 120 hrs by MTT assay; format: functional, cell-based; conditions: A549, 120 h
LoVo = test: Antiproliferative activity against human LoVo cells after 120 hrs by MTT assay; format: functional, cell-based
MIA PaCa-2 = test: Antiproliferative activity against human MIAPaCa2cells after 120 hrs by MTT assay; format: functional, cell-based; conditions: MIA PaCa-2, 120 h
PC-3 [27] = test: Antiproliferative activity against human PC3 cells after 120 hrs by MTT assay; format: functional, cell-based; conditions: PC-3, 120 h
PC-3 [28] = test: Antiproliferative activity against human PC3 cells at 250 nM after 120 hrs by MTT assay relative to DMSO; format: functional
PC-3 [29] = test: Antiproliferative activity against human PC3 cells at 10 uM after 120 hrs by MTT assay relative to DMSO; format: functional
Cofilin-1 (Homo sapiens) [30] = molecular target: Cofilin-1 (Homo sapiens) (UniProt P23528); test: Inhibition of cofilin1 expressed in HEK293 cells assessed as effect on cofilin1; Limk2 interaction complexes by EYFP and/or YFP Venus fragment based reporter gene assay; format: cell-based

Chain of Cyclin-dependent kinase 1 (Homo sapiens) (P06493 whole entry, looked up, the tested form may be a part): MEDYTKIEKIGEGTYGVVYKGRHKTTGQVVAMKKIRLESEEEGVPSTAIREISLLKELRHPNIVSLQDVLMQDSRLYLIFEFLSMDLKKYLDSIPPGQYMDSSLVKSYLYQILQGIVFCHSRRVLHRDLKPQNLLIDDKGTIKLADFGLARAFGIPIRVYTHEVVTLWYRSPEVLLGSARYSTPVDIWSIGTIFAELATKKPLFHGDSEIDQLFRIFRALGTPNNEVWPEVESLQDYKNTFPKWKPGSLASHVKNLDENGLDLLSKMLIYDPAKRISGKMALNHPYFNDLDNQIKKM
Chain of Cofilin-1 (Homo sapiens) (P23528 whole entry, the tested form may be a part): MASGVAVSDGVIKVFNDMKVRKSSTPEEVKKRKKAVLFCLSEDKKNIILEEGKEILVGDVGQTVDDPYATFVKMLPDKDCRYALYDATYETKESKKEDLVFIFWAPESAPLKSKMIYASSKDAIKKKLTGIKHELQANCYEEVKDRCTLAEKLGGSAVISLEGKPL
Chain of Transcription factor Jun (Homo sapiens) (P05412 whole entry, the tested form may be a part): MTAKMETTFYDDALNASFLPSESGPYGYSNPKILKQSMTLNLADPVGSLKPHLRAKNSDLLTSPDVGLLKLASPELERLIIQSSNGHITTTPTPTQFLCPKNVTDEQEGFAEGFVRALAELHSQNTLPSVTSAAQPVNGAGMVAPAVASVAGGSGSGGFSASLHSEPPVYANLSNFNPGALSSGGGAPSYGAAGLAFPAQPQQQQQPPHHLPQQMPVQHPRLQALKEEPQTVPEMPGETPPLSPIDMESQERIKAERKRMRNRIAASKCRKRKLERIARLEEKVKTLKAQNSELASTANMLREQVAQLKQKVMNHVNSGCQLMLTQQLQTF

COc1cc2ncnc(Nc3cccc(Br)c3)c2cc1OC
fold change (FC) (PC-3 [1]): 0.983

Br.Cc1ccc(C(=O)Cn2c3c(sc2=N)CCCC3)cc1
fold change (FC) (PC-3 [2]): 0.424

CC(C)OC(=O)C(C)(C)Oc1ccc(C(=O)c2ccc(Cl)cc2)cc1
Activity [3]: Active | Activity [4]: Active | Activity [5]: Active | Activity [6]: Active | Activity (Cofilin-1 (Homo sapiens) [7]): Active | inhibition [8]: Active

CCCC[C@@H](C=O)NC(=O)[C@H](CC(C)C)NC(=O)[C@H](CC(C)C)NC(C)=O (Ac-Leu-Leu-[Nle]-aldehyde)
Activity (Cofilin-1 (Homo sapiens) [9]): Active | inhibition (HEK293 [10]): Active | fold change (FC) (PC-3 [11]): 0.26 | inhibition (HEK293 [12]): Active | inhibition (HEK293 [13]): Active | inhibition (HEK293 [14]): Active | inhibition (HEK293 [15]): Active

CC[C@H](C)[C@H](NC(=O)[C@@H](NC(=O)[C@H](CC(=O)O)NC(=O)[C@H](CCC(N)=O)NC(=O)[C@H](Cc1cnc[nH]1)NC(=O)[C@@H]1CSSC[C@H](N)C(=O)N[C@@H](CO)C(=O)N[C@H]2CSSC[C@H](NC(=O)[C@H](CCC(=O)O)NC(=O)[C@H](CCCCN)NC(=O)[C@H](CC(=O)O)NC(=O)[C@H]([C@@H](C)O)NC(=O)[C@H](CCSC)NC(=O)[C@H](CC(=O)O)NC(=O)[C@H](CCCCN)NC2=O)C(=O)N[C@@H](CC(C)C)C(=O)N[C@@H](Cc2ccc(O)cc2)C(=O)N[C@@H](Cc2ccccc2)C(=O)N1)C(C)C)C(=O)N[C@@H](Cc1c[nH]c2ccccc12)C(=O)O (H-CSCKDMTDKECLYFCHQDVIW-OH; disulfide 1-15, 3-11)
fold change (FC) (PC-3 [16]): 1.037

C=CCNC1=C2C[C@@H](C)C[C@H](OC)[C@H](O)[C@@H](C)/C=C(\C)[C@H](OC(N)=O)[C@@H](OC)/C=C\C=C(/C)C(=O)NC(=CC1=O)C2=O (stereo in doubt) [TANESPIMYCIN]
fold change (FC) (PC-3 [17]): 0.264 | inhibition (HEK293 [18]): Active

CC[C@H](C)[C@H](NC(=O)[C@H](Cc1ccc(O)cc1)NC(=O)[C@@H](NC(=O)[C@H](CCCNC(=N)N)NC(=O)[C@@H](N)CC(=O)O)C(C)C)C(=O)N[C@@H](Cc1cnc[nH]1)C(=O)N1CCC[C@H]1C(=O)N[C@@H](Cc1ccccc1)C(=O)O [ANGIOTENSIN II]
fold change (FC) (PC-3 [19]): 1.018

O=c1cc(-c2ccc(O)cc2)oc2cc(O)cc(O)c12 [APIGENIN]
fold change (FC) (PC-3 [2]): 0.552

C[C@H]1CCC/C=C/[C@@H]2C[C@H](O)C[C@H]2[C@H](O)/C=C/C(=O)O1 [BREFELDIN A]
fold change (FC) (PC-3 [20]): 0.245

Cn1c(=O)c2c(ncn2C)n(C)c1=O [CAFFEINE]
fold change (FC) (PC-3 [2]): 0.952

CC1(COc2ccc(CC3SC(=O)NC3=O)cc2)CCCCC1 (stereo not given) [CIGLITAZONE]
fold change (FC) (PC-3 [21]): 0.934

CC(C)(Oc1ccc(C2CC2(Cl)Cl)cc1)C(=O)O (stereo not given) [CIPROFIBRATE]
Activity [3]: Active | fold change (FC) (PC-3 [22]): 1.047

CCOC(=O)C(C)(C)Oc1ccc(Cl)cc1 [CLOFIBRATE]
Activity [3]: Active | Activity [4]: Active | fold change (FC) (PC-3 [22]): 1.021 | Activity [5]: Active | Activity [6]: Active | Activity (Cofilin-1 (Homo sapiens) [7]): Active | inhibition [8]: Active

C/C(=C\c1csc(C)n1)[C@@H]1C[C@@H]2O[C@@H]2CCC[C@H](C)[C@H](O)[C@@H](C)C(=O)C(C)(C)[C@@H](O)CC(=O)O1 [EPOTHILONE A]
fold change (FC) (PC-3 [16]): 0.291

C=C1C[C@@H]2[C@H](CC[C@]3(C)C(=O)CC[C@@H]23)[C@@]2(C)C=CC(=O)C=C12 [EXEMESTANE]
fold change (FC) (PC-3 [23]): 0.975

COC1=C2C[C@@H](C)C[C@H](OC)[C@H](O)[C@@H](C)/C=C(\C)[C@H](OC(N)=O)[C@@H](OC)/C=C\C=C(/C)C(=O)NC(=CC1=O)C2=O [GELDANAMYCIN]
fold change (FC) (PC-3 [24]): 0.261 | inhibition (HEK293 [18]): Active

Cc1ccc(C)c(OCCCC(C)(C)C(=O)O)c1 [GEMFIBROZIL]
Activity [3]: Active | fold change (FC) (PC-3 [22]): 1.046

Cn1c2ccccc2c2c3c(c4c5ccccc5n(CCC#N)c4c21)CNC3=O [GO-6976]
fold change (FC) (PC-3 [16]): 1.119

N#Cc1ccc(C(c2ccc(C#N)cc2)n2cncn2)cc1 [LETROZOLE]
fold change (FC) (PC-3 [23]): 1.001

CC(C)C[C@@H](C=O)NC(=O)[C@H](CC(C)C)NC(=O)[C@H](CC(C)C)NC(=O)OCc1ccccc1 [MG-132] (Cbz-Leu-Leu-Leu-aldehyde)
Activity (Cofilin-1 (Homo sapiens) [9]): Active | inhibition (HEK293 [10]): Active | inhibition (HEK293 [12]): Active | inhibition (HEK293 [13]): Active | fold change (FC) (PC-3 [25]): 0.255 | inhibition (HEK293 [14]): Active | inhibition (HEK293 [15]): Active

Cc1[nH]c(=O)c(C#N)cc1-c1ccncc1 [MILRINONE]
fold change (FC) (PC-3 [1]): 1.015

O=C(Nc1ccc([N+](=O)[O-])cc1Cl)c1cc(Cl)ccc1O [NICLOSAMIDE]
pIC50 [26]: 6.40 | pIC50 (A549): 6.40 | pIC50 (LoVo): 6.15 | pIC50 (MIA PaCa-2): 5.96 | pIC50 (PC-3 [27]): 6.40 | fold change (FC) (PC-3 [25]): 0.408

CC(=O)O[C@H]1C(=O)[C@@]2(C)[C@H]([C@H](OC(=O)c3ccccc3)[C@]3(O)C[C@H](OC(=O)[C@H](O)[C@@H](NC(=O)c4ccccc4)c4ccccc4)C(C)=C1C3(C)C)[C@]1(OC(C)=O)CO[C@@H]1C[C@@H]2O [PACLITAXEL]
fold change (FC) (PC-3 [24]): 0.281

CN(CCOc1ccc(CC2SC(=O)NC2=O)cc1)c1ccccn1 (stereo not given) [ROSIGLITAZONE]
fold change (FC) (PC-3 [21]): 0.925

C=C(C)[C@H]1Cc2c(ccc3c2O[C@@H]2COc4cc(OC)c(OC)cc4[C@@H]2C3=O)O1 [ROTENONE]
Activity [4]: Active | Activity [5]: Active | Activity [6]: Active | fold change (FC) (PC-3 [19]): 0.548 | Activity (Cofilin-1 (Homo sapiens) [7]): Active

COc1ccc(-n2nc(C(F)(F)F)cc2-c2ccc(Cl)cc2)cc1 [SC-560]
fold change (FC) (PC-3 [28]): 1.036

CN[C@H]1CC[C@@H](c2ccc(Cl)c(Cl)c2)c2ccccc21 [SERTRALINE]
fold change (FC) (PC-3 [29]): 0.226 | inhibition (Cofilin-1 (Homo sapiens) [30]): Active | Activity [4]: Active | Activity [5]: Active | Activity [6]: Active | Activity (Cofilin-1 (Homo sapiens) [7]): Active

CO[C@H]1C[C@@H]2CC[C@@H](C)[C@@](O)(O2)C(=O)C(=O)N2CCCC[C@H]2C(=O)O[C@H]([C@H](C)C[C@@H]2CC[C@@H](O)[C@H](OC)C2)CC(=O)[C@H](C)/C=C(\C)[C@@H](O)[C@@H](OC)C(=O)[C@H](C)C[C@H](C)/C=C/C=C/C=C/1C [SIROLIMUS]
fold change (FC) (PC-3 [28]): 0.401

O=C1CCC(N2C(=O)c3ccccc3C2=O)C(=O)N1 (stereo not given) [THALIDOMIDE]
fold change (FC) (PC-3 [28]): 0.992
